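In this assay, cells in 96-well plates receive the compound at five concentrations for 48 hours. Endpoints are linearly interpolated between the surrounding concentrations. GI50 marks 50% less growth.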 Activity calls are given as the source filed them. No stated cut-off is given here; in the data, active = GI50 up to about 1.1 µM and inactive = higher.
Assays:
Assay in all cases: NCI anticancer screen, dose series, 48 h
SK-OV-3 = system: SK-OV-3
OVCAR-4 = system: OVCAR-4
IGROV-1 = system: IGROV-1
CAKI-1 = system: CAKI-1
NCI-H460 = system: NCI-H460
HT-29 = system: HT-29
KM12 = system: KM12
U-251 = system: U-251
HCT-116 = system: HCT-116
NCI-H522 = system: NCI-H522
SK-MEL-28 = system: SK-MEL-28
OVCAR-5 = system: OVCAR-5
UO-31 = system: UO-31
HCC 2998 = system: HCC 2998
M14 = system: M14
MDA-N = system: MDA-N
SF-268 = system: SF-268
OVCAR-8 = system: OVCAR-8
LOX IMVI = system: LOX IMVI
NCI-H226 = system: NCI-H226

Measured: GI50

CO[C@](C(=O)OC[C@H]1[C@@H](COC(C)=O)[C@@H]2O[C@H]1c1cc3c(cc12)OCO3)(c1ccccc1)C(F)(F)F
inactive: SK-OV-3 89.7 µM | OVCAR-4 40.4 µM | IGROV-1 12.7 µM | CAKI-1 32.8 µM | NCI-H460 13.4 µM | HT-29 39.2 µM | KM12 14.2 µM | U-251 36.5 µM | HCT-116 13.6 µM | NCI-H522 4.26 µM | SK-MEL-28 41.3 µM | OVCAR-5 30.9 µM | UO-31 10.4 µM | HCC 2998 23.8 µM | M14 35.9 µM | MDA-N 38.3 µM | SF-268 30.7 µM

CCOc1ccccc1/C=C(/C#N)C(N)=O
inactive: SK-OV-3 > 100 µM | OVCAR-8 > 100 µM | OVCAR-4 > 100 µM | IGROV-1 > 100 µM | CAKI-1 > 100 µM | NCI-H460 > 100 µM | HT-29 > 100 µM | KM12 > 100 µM | LOX IMVI > 100 µM | U-251 > 100 µM | HCT-116 78.3 µM | NCI-H226 > 100 µM | NCI-H522 > 100 µM | SK-MEL-28 > 100 µM | OVCAR-5 > 100 µM | UO-31 85.3 µM | M14 > 100 µM | MDA-N 18.7 µM | SF-268 > 100 µM

Oc1ccc2ccccc2c1C(c1ccc(Cl)cc1)c1c(O)ccc2ccccc12
inactive: SK-OV-3 4.66 µM | OVCAR-8 3.33 µM | OVCAR-4 3.05 µM | IGROV-1 2.35 µM | CAKI-1 2.71 µM | NCI-H460 3.16 µM | HT-29 2.98 µM | KM12 2.67 µM | LOX IMVI 2.91 µM | U-251 3.43 µM | HCT-116 2.48 µM | NCI-H522 2.09 µM | SK-MEL-28 3.87 µM | OVCAR-5 3.08 µM | UO-31 2.9 µM | HCC 2998 1.34 µM | M14 4.06 µM | MDA-N 3.31 µM | SF-268 1.66 µM

CCOC(=O)c1cc(C2(O)CCN(CC(C)CC)C2=O)c(-c2cc(C)no2)[nH]1 (stereo unspecified)
inactive: SK-OV-3 > 100 µM | OVCAR-8 > 100 µM | OVCAR-4 > 100 µM | IGROV-1 > 100 µM | CAKI-1 > 100 µM | NCI-H460 > 100 µM | HT-29 > 100 µM | KM12 > 100 µM | LOX IMVI > 100 µM | U-251 > 100 µM | HCT-116 > 100 µM | NCI-H226 > 100 µM | SK-MEL-28 > 100 µM | OVCAR-5 > 100 µM | UO-31 > 100 µM | HCC 2998 > 100 µM | M14 > 100 µM | MDA-N > 100 µM | SF-268 > 100 µM

O=C(NCCCN1CCN(CCCNC(=O)Nc2cccc3ccccc23)CC1)Nc1cccc2ccccc12
inactive: OVCAR-8 18.7 µM | OVCAR-4 25.4 µM | IGROV-1 17.3 µM | CAKI-1 16.2 µM | HT-29 16.8 µM | KM12 19.3 µM | LOX IMVI 8.49 µM | U-251 5.46 µM | HCT-116 14.4 µM | NCI-H522 15.8 µM | SK-MEL-28 14.4 µM | OVCAR-5 15.1 µM | UO-31 16.6 µM | HCC 2998 2.29 µM | M14 16.3 µM | MDA-N 15.6 µM | SF-268 17.3 µM

CCC1=C(CC2NCCc3cc(OC)c(OC)cc32)CC2c3ccccc3CCN2C1 (stereo unspecified)
inactive: SK-OV-3 > 100 µM | OVCAR-8 37.5 µM | OVCAR-4 22.5 µM | IGROV-1 21.2 µM | CAKI-1 22.4 µM | NCI-H460 12.6 µM | HT-29 5.56 µM | KM12 23.7 µM | LOX IMVI 13.5 µM | U-251 13.7 µM | HCT-116 8.55 µM | NCI-H226 19 µM | NCI-H522 14.8 µM | SK-MEL-28 13.9 µM | OVCAR-5 12.4 µM | UO-31 15 µM | M14 14.3 µM | MDA-N 14 µM | SF-268 31.5 µM

CCCCC1(O)CC2CC1C(C)C2(C)C (stereo unspecified)
inactive: SK-OV-3 > 100 µM | OVCAR-8 > 100 µM | OVCAR-4 > 100 µM | IGROV-1 > 100 µM | CAKI-1 > 100 µM | HT-29 > 100 µM | KM12 > 100 µM | LOX IMVI > 100 µM | U-251 > 100 µM | HCT-116 > 100 µM | NCI-H226 > 100 µM | SK-MEL-28 > 100 µM | OVCAR-5 > 100 µM | UO-31 > 100 µM | HCC 2998 > 100 µM | M14 > 100 µM | MDA-N > 100 µM | SF-268 > 100 µM

CC(=O)Oc1ccc(/C=C/C(=O)O[C@@H](C)[C@H](C)OC(=O)/C=C/c2ccc(OC(C)=O)c(OC(C)=O)c2)cc1OC(C)=O
inactive: SK-OV-3 19.5 µM | OVCAR-8 11.5 µM | OVCAR-4 28.7 µM | IGROV-1 5.75 µM | CAKI-1 27.3 µM | NCI-H460 5.94 µM | KM12 9.46 µM | LOX IMVI 6.61 µM | U-251 17.1 µM | HCT-116 7.5 µM | NCI-H522 6.37 µM | SK-MEL-28 15.3 µM | OVCAR-5 21.2 µM | UO-31 5.94 µM | HCC 2998 11.4 µM | M14 11.4 µM | MDA-N 11.1 µM | SF-268 18.4 µM
